{"source": "PubChem BioAssay (NCI)", "test_in_all_cases": "NCI-60 cell line screen, 48 h", "key": {"A549 NSCLC": {"system": "A549 NSCLC"}, "T-47D breast": {"system": "T-47D breast"}, "EKVX NSCLC": {"system": "EKVX NSCLC"}, "SN12C renal": {"system": "SN12C renal"}, "NCI/ADR-RES ovarian": {"system": "NCI/ADR-RES ovarian"}, "SNB-75 CNS": {"system": "SNB-75 CNS"}, "SW-620 colon": {"system": "SW-620 colon"}, "UACC-62 melanoma": {"system": "UACC-62 melanoma"}, "SF-295 CNS": {"system": "SF-295 CNS"}, "IGROV1 ovarian": {"system": "IGROV1 ovarian"}}, "note": "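Growth conditions: 96-well plates. Treatment: test compound, 48 hours, 5 concentrations. Analysis: linear interpolation between bracketing concentrations; unreached endpoints set to highest concentration. GI50: concentration for 50% inhibition of growth. At the TGI there is no net growth.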", "data": [{"smiles": "COc1c(C(N)=O)cc(-c2ccc(Cl)cc2)cc1-c1ccc(S(N)(=O)=O)cc1", "values": [{"measurement": "GI50", "setting": "A549 NSCLC", "value": 8.33, "unit": "µM"}, {"measurement": "TGI", "setting": "A549 NSCLC", "value": "> 25", "unit": "µM"}, {"measurement": "GI50", "setting": "T-47D breast", "value": 9.71, "unit": "µM"}, {"measurement": "TGI", "setting": "T-47D breast", "value": "> 25", "unit": "µM"}, {"measurement": "GI50", "setting": "EKVX NSCLC", "value": 8.91, "unit": "µM"}, {"measurement": "TGI", "setting": "EKVX NSCLC", "value": "> 25", "unit": "µM"}, {"measurement": "GI50", "setting": "SN12C renal", "value": 10.5, "unit": "µM"}, {"measurement": "TGI", "setting": "SN12C renal", "value": "> 25", "unit": "µM"}, {"measurement": "GI50", "setting": "NCI/ADR-RES ovarian", "value": "> 17.5", "unit": "µM"}, {"measurement": "TGI", "setting": "NCI/ADR-RES ovarian", "value": "> 25", "unit": "µM"}, {"measurement": "GI50", "setting": "SNB-75 CNS", "value": 7.76, "unit": "µM"}, {"measurement": "TGI", "setting": "SNB-75 CNS", "value": "> 25", "unit": "µM"}, {"measurement": "GI50", "setting": "SW-620 colon", "value": 12, "unit": "µM"}, {"measurement": "TGI", "setting": "SW-620 colon", "value": "> 25", "unit": "µM"}, {"measurement": "GI50", "setting": "UACC-62 melanoma", "value": 12.8, "unit": "µM"}, {"measurement": "TGI", "setting": "UACC-62 melanoma", "value": "> 25", "unit": "µM"}, {"measurement": "GI50", "setting": "SF-295 CNS", "value": 11.2, "unit": "µM"}, {"measurement": "TGI", "setting": "SF-295 CNS", "value": "> 25", "unit": "µM"}, {"measurement": "GI50", "setting": "IGROV1 ovarian", "value": 10.4, "unit": "µM"}, {"measurement": "TGI", "setting": "IGROV1 ovarian", "value": "> 25", "unit": "µM"}]}, {"smiles": "COc1ccc2c3ccnc(C(F)(F)F)c3n(CCCCN)c2c1", "values": [{"measurement": "GI50", "setting": "A549 NSCLC", "value": 11.6, "unit": "µM"}, {"measurement": "TGI", "setting": "A549 NSCLC", "value": 26.3, "unit": "µM"}, {"measurement": "GI50", "setting": "T-47D breast", "value": 6.86, "unit": "µM"}, {"measurement": "TGI", "setting": "T-47D breast", "value": 23.8, "unit": "µM"}, {"measurement": "GI50", "setting": "EKVX NSCLC", "value": 5.42, "unit": "µM"}, {"measurement": "TGI", "setting": "EKVX NSCLC", "value": 23.6, "unit": "µM"}, {"measurement": "GI50", "setting": "SN12C renal", "value": 10.5, "unit": "µM"}, {"measurement": "TGI", "setting": "SN12C renal", "value": 28.7, "unit": "µM"}, {"measurement": "GI50", "setting": "NCI/ADR-RES ovarian", "value": 8.6, "unit": "µM"}, {"measurement": "TGI", "setting": "NCI/ADR-RES ovarian", "value": 28.1, "unit": "µM"}, {"measurement": "GI50", "setting": "SNB-75 CNS", "value": 2.19, "unit": "µM"}, {"measurement": "TGI", "setting": "SNB-75 CNS", "value": 12.8, "unit": "µM"}, {"measurement": "GI50", "setting": "SW-620 colon", "value": 3.28, "unit": "µM"}, {"measurement": "TGI", "setting": "SW-620 colon", "value": 14.6, "unit": "µM"}, {"measurement": "GI50", "setting": "UACC-62 melanoma", "value": 10.8, "unit": "µM"}, {"measurement": "TGI", "setting": "UACC-62 melanoma", "value": 23.2, "unit": "µM"}, {"measurement": "GI50", "setting": "SF-295 CNS", "value": 6.71, "unit": "µM"}, {"measurement": "TGI", "setting": "SF-295 CNS", "value": 22.6, "unit": "µM"}, {"measurement": "GI50", "setting": "IGROV1 ovarian", "value": 3.39, "unit": "µM"}, {"measurement": "TGI", "setting": "IGROV1 ovarian", "value": 14.5, "unit": "µM"}]}]}
